Our source for the EC50 and AC50 values is ChEMBL document CHEMBL1201862, “PubChem BioAssay data set” (2004).

Data set [1] deals with Streptococcus sp. 'group A'. As to the kind of experiment: growth inhibition of control SK(-) GAS strain, dose response, counter-screen for streptokinase expression inhibitor project, luminescence, kanamycin, BacTiterGlo, confirmation (AID 1900). The data set is classed as functional, organism-based. For orientation: The purpose of a counterscreen is to sort out artefacts and off-target activity.

A further data set has as its system Streptococcus. As to the kind of experiment: Group A Streptococcus viability loss, dose response, counter-screen for streptokinase expression inhibitor project, luminescence, BacTiterGlo (AID 1915).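 Further: potency for reduction of bacterial viability or growth.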 The class given is functional, organism-based.
Another data set addresses T1, Streptokinase A (Streptococcus pyogenes serotype M1, UniProt P10520).
T1 sequence (P10520 whole entry): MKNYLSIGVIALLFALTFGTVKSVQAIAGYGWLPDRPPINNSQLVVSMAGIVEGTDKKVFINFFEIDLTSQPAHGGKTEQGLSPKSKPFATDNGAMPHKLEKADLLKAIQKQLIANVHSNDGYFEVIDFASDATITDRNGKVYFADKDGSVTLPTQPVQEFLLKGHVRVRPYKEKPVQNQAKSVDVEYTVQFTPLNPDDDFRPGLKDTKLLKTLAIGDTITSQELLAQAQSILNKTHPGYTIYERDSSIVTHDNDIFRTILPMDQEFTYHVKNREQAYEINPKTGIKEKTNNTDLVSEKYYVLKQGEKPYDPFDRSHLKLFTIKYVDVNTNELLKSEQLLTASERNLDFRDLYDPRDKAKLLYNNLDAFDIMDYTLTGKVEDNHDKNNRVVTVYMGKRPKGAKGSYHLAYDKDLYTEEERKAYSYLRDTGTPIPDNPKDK
As to the kind of experiment: S. pyogenes streptokinase expression inhibitors, potency, dose response, plasminogen activation absorbance, OD405 (AID 1914).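 Further: secreted streptokinase activity via plasminogen activation per viability signal from cell pellet.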 The data set is classed as functional, Streptococcus pyogenes M1 GAS.

Data set [2] can be described thus: cytotoxicity toward NIH3T3 fibroblasts, dose response, counter-screen, cell-based, ATP luminescence, mouse fibroblasts (AID 2010).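 Further: cells exposed to compound for about 90 hours before reading.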 The class given is functional.
Data set [3] is described as follows: inhibitors of intracellular T. cruzi replication, confirmation, NIH3T3 host cells, beta-gal luminescence (AID 2044).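 Further: intracellular parasites grown in NIH/3T3 mouse fibroblasts as host cells; luminescent beta-galactosidase reporter signal from transgenic T. cruzi replicating inside host cells; inhibitors lower the luminescence signal.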 The data set is classed as functional, cell-based.
Data set [4] can be described thus: inhibitors of firefly luciferase expression or activity, dose response, H4 neuroglioma cells, luminescence (AID 1990). The class given is functional, cell-based.
The nature of data set [5]: inhibitors of SNCA 5'UTR-driven reporter translation, confirmation, H4 neuroglioma cells, luminescence (AID 1988). The class given is functional, cell-based.
The target of the next data set is Cytochrome P450 2C19 (Homo sapiens, UniProt P33261). The data set can be described thus: Cytochrome panel assay with activity outcomes. Panel member name: p450-cyp2c19 Compounds with AC50 equal or less than 10 uM are considered active. The data set is classed as functional.
Cytochrome P450 2C19, sequence (P33261 whole entry): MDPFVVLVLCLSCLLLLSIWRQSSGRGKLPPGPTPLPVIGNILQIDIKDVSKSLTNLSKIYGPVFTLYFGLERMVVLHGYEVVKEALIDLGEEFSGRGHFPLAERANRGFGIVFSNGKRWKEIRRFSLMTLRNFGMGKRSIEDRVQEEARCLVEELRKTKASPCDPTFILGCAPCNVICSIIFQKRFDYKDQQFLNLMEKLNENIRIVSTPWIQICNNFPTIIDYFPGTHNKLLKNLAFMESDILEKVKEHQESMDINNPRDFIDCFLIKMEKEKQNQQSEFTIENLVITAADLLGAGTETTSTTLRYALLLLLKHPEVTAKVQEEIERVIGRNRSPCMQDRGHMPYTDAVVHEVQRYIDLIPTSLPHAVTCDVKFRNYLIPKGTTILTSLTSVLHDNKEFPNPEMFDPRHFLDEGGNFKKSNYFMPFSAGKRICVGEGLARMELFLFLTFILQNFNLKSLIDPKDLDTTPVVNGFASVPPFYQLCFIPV
Data set [6] has as its target T2, Corticotropin-releasing factor receptor 2/Corticotropin-releasing factor-binding protein (Homo sapiens, UniProt P24387+Q13324).
T2 sequence (Q13324 whole entry): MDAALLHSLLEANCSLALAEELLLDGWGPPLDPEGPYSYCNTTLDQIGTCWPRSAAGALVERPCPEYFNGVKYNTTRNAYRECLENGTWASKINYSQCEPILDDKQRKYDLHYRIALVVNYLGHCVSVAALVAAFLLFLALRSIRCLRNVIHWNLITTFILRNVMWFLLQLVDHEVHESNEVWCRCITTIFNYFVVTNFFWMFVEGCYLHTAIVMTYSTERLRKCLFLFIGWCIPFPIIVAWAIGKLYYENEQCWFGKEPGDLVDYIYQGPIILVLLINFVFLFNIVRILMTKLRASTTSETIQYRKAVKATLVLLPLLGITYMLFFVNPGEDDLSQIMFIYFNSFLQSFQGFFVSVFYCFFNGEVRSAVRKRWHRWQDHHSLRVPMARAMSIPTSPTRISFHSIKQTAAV
T2 sequence (P24387 whole entry): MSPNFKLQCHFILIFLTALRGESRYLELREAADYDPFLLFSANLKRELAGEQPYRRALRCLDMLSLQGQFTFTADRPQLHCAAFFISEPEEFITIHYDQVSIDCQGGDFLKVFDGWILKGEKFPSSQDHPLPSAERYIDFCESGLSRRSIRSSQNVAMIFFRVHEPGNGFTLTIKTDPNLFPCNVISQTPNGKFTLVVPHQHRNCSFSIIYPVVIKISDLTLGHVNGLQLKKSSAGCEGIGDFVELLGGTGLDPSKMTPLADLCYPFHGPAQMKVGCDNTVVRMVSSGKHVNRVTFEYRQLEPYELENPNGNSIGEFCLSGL
As to the kind of experiment: activators of CRF receptor 2 with binding protein – uHTS hits, confirmation (AID 602473). The data set is classed as functional. Particulars: read-out: EC50_Mean.

The source made the active and inactive calls.

Regarding `CC(/C=C/C=C/c1ccccc1)=N/NC(=O)c1ccc2c(c1)OCCO2`, the EC50 (in data set [1]; in the data set on Streptococcus; at Streptokinase A) was > 150 µM (not active) in each case.
In the case of `Cc1cccc(N=Nc2c(C)nn(-c3ccccc3)c2N)c1C`, the values for the EC50 (in [1]; with Streptococcus; on Streptokinase A) were 11.7 µM (active), 15.8 µM (active) and 22 µM (active), respectively.
As to `CCc1nnc(NC(=O)c2sc3nc4cc(C)ccc4cc3c2N)s1`, the results for the EC50 (in [1]; in the data set with Streptococcus) were 6.73 µM (active) and 3.95 µM (active), respectively.
For the molecule `Cn1c(=O)n(C)c2cc(NS(=O)(=O)c3ccccc3[N+](=O)[O-])ccc21`, the EC50 (in data set [1]; with Streptococcus; on Streptokinase A) was > 150 µM (not active) throughout.
Regarding `O=C(Nc1nnc(SCc2ccc(F)cc2)s1)c1ccc2c(c1)C(=O)N(c1ccccc1Cl)C2=O`, the EC50 in [1] is 24.3 µM (active); in the data set with Streptococcus, 101 µM (active); at Streptokinase A it was > 150 µM (not active).
Regarding `O=C1S/C(=C\c2ccccc2)C(=O)N1CC(O)Cn1c2ccccc2c2ccccc21` (configuration not stated), the values for the EC50 in data set [2] and in data set [3] were 11.5 µM (active) and 2.64 µM (active), respectively.
As to `COC(=O)c1ccc(OC)c(CN2CCCN(Cc3ccc(F)cc3)S2(=O)=O)c1`, the figures for the EC50 in [2] and in data set [3] were > 30 µM (not active) and 1.75 µM (active), respectively.
In the same order, the values of `O=C(CSc1nnc(-c2c[nH]c3ccccc23)o1)N(Cc1ccccc1)c1ccc(F)cc1` are > 60 µM (not active) and 1.58 µM (active).
For `O=C(Nc1ccncc1)c1cccc(S(=O)(=O)N2CCN(c3ccc(F)cc3)CC2)c1`, in that order: > 30 µM (not active) and 1.14 µM (active).
For `COc1ccc(Cc2noc(CN3CCN(C4CCc5ccccc5C4)CC3)n2)cc1OC` (configuration not stated), in that order: > 60 µM (not active) and 1.23 µM (active).
Consider `COc1ccc(-n2ncc3c2CC(C)(C)CC3NC(=O)c2ocnc2C)cc1` (configuration not stated), for which the EC50 in [4] and in [5] was > 120 µM (not active) each time.
In the case of `NNC(=O)CSc1nc(-c2ccccc2)nc2c1CCCC2`, the EC50 (in data set [1]; in the data set on Streptococcus; at Streptokinase A) was > 150 µM (not active) each time.
With `CN(C)c1ncc2nc(-c3ccccc3)c(=O)n(CCC#N)c2n1`, the AC50 (usually the concentration giving half of the maximal activity seen) on Cytochrome P450 2C19 (read-out: AC50) is 39.8 µM (inconclusive).
For `CCOC(=O)C1CCCN(Cc2ccc(OCc3ccccc3)cc2)C1` (configuration not stated), the values for the EC50 in data set [2] and in data set [3] were > 60 µM (not active) and 0.108 µM (active), respectively.
Turning to `CCCN(Cc1ccco1)S(=O)(=O)c1ccc(OC)c(OC)c1`, the EC50 (in [1]; in the data set with Streptococcus; at Streptokinase A) was > 150 µM (not active) each time.
For `CC(C)=CCC12Oc3cc(O)ccc3C1(O)Oc1cc(O)c([C@H]3C=C(C)CC(c4ccc(O)cc4O)[C@H]3C(=O)c3ccc(O)cc3O)c(O)c1C2=O` (some centres not stated), the EC50 in [1] was 1.15 µM (active); in the data set on Streptococcus, 1.64 µM (active).
In the same order, the values of `O=C(Cn1nnc(-c2ccccc2)n1)N/N=C/c1cc([N+](=O)[O-])ccc1O` are 0.421 µM (active) and 0.55 µM (active).
Turning to `COc1ccc(NC(=O)c2ccc([N+](=O)[O-])s2)c([N+](=O)[O-])c1`, the EC50 in [2] is > 30 µM (not active); in data set [3], 1.86 µM (active).
Consider `Cc1ccc(Nc2nc3nonc3[nH]c2=O)cc1Cl`, for which the EC50 at Streptokinase A is 31.1 µM (active).
In the case of `O=C(COC(=O)CSc1cc(Cl)ccc1Cl)NCc1ccc2c(c1)OCO2`, in data set [6], the EC50 is > 53 µM (inactive).
On the same count and under the same terms, then `O=C(C[C@H]1C[C@H](C(=O)N2CCCCC2)[C@@]2(CCc3ccccc3)c3[nH]c4ccc(Cl)cc4c3CCN2C1=O)NCCN1CCOCC1`, with > 53 µM (inactive).
For the molecule `Oc1ccc(/C=N/Nc2ccc3ccccc3c2)c(O)c1`, the EC50 in [1] is 6.27 µM (active); in the data set on Streptococcus, 31.9 µM (active); on Streptokinase A, > 150 µM (not active).
`N#C/C(=C/c1ccc(N2CCCCCC2)o1)c1cccc(F)c1`: the EC50 was > 60 µM (not active) in [2] and 2.78 µM (active) in data set [3].
With `COc1cc2ccccc2cc1C(=O)Nc1ccc(NC(=O)c2cccs2)cc1`, the EC50 in data set [1] was 11.5 µM (active); in the data set on Streptococcus, 29.2 µM (active); at Streptokinase A it was > 150 µM (not active).
For `Cc1ccc(NC(=O)CN(C)Cc2nc(O)c3cc(Br)cc(Br)c3n2)cc1`, in that order: 5.34 µM (active), 12.2 µM (active) and > 150 µM (not active).
`Cc1ccc(Nc2nc3nonc3nc2O)cc1Cl`: the EC50 was 3.04 µM (active) in data set [1] and 20.6 µM (active) in the data set with Streptococcus.
Turning to `CN1CCN(C(CNC(=O)c2ccc(Br)o2)c2ccc(F)cc2)CC1` (configuration not stated), the EC50 in data set [2] was > 60 µM (not active); in data set [3], 0.865 µM (active).
For `Cc1ccc(C)c(NC(=O)c2cccc(Oc3ccc([N+](=O)[O-])cc3Cl)c2)c1`, the EC50 was > 30 µM (not active) in data set [2] and 1.45 µM (active) in data set [3].
For `CSc1nnnc2ccccc12`, the AC50 entry at Cytochrome P450 2C19 is given as “inconclusive”.
As to `Cc1ccc(S(=O)(=O)N2CCCCC2)cc1NC(=O)Nc1ccc(Cl)cc1Cl`, the EC50 in data set [2] was > 60 µM (not active); in data set [3], 1.06 µM (active).
Take `Cn1c(N)c(C(=O)COC(=O)CCc2c[nH]c3ccccc23)c(=O)n(C)c1=O`: the EC50 is 24.6 µM (active) in data set [1], 79.6 µM (active) in the data set with Streptococcus and > 150 µM (not active) at Streptokinase A.
As to `Cc1cc(C(=O)NCC23CC4CC(CC(C4)C2)C3)c(C)o1`, the EC50 in data set [2] is > 60 µM (not active); in [3] it was 2.84 µM (active).
Consider `O=[N+]([O-])c1cccc(-c2ccc(/C=N/NC(=S)Nc3ccccc3)o2)c1`, for which, in data set [3], the EC50 is 1.99 µM (active).
Regarding `Cn1nc([N+](=O)[O-])nc1Oc1ccccc1F`, the EC50 in data set [2] was > 60 µM (not active); in data set [3], 0.551 µM (active).
In the same order, the values of `CCOC(=O)C1CCCN(Cc2ccc(O)c(OC)c2)C1` (configuration not stated) are > 60 µM (not active) and 0.183 µM (active).
Consider `CCN(CC)C(=O)Cn1c(=O)c2ccccc2n2c(=S)sc(-c3cccc(C)c3)c12`, for which the EC50 in [6] was > 53 µM (inactive).
For `Cc1ccccc1OCCCc1c(C)n[nH]c1C`, the values for the EC50 (in data set [1]; in the data set with Streptococcus; at Streptokinase A) were 19.9 µM (active), > 150 µM (not active) and > 150 µM (not active), respectively.
Regarding `CN1CCN(C(=O)C(=O)c2cn(CC(=O)N3CCCC3)c3ccccc23)CC1`, the EC50 (in data set [1]; with Streptococcus; at Streptokinase A) was > 150 µM (not active) in each case.
In the case of `CCOC(=O)C1=NN(C(=O)c2ccc(OC)cc2)C(O)(c2ccc(Cl)cc2)C1` (configuration not stated), the EC50 in data set [1] was 7.85 µM (active); in the data set on Streptococcus, 15.7 µM (active); on Streptokinase A it was > 150 µM (not active).
Turning to `Cc1cc(OCCOCCN2CCCC2)ccc1C(C)C`, the values for the EC50 in data set [2] and in data set [3] were 4.6 µM (active) and 0.816 µM (active), respectively.
On to `CNc1nc2nc(O)c3c(c2s1)OC(N)=C(C#N)C3c1cccc(F)c1` (configuration not stated), for which the EC50 in data set [6] is > 53 µM (inactive).
